In brackets after ≈: the same amount, converted by molar mass.
What was measured:
[1] = tested on: E. coli JC-2; assay: In vitro antibacterial activity (MIC, two-fold agar dilution) against E. coli JC-2; format: cell-based; conditions: Escherichia coli, JC2
Experimental: (§1) The in vitro antibacterial activity of a compound as prepared in the foregoing Example was evaluated as follows. A compound to be tested was dissolved in 0.01N aqueous solution of sodium hydrogen carbonate and the solution was applied to an agar plate and the minimal inhibitory concentration (MIC) against each bacterium was measured by two-fold dilution method according to the standard method of the Japan Society of Chemotherapy.
(§2) In the assay, as a control compound, 7β-[(Z)-2-(2-amino-4-thiazolyl)-2-hydroxyiminoacetamido]-3-(1,2,3-triazol-4-yl)thiomethylthio-3-cephem-4-carboxylic acid (a thiomethylthio cephalosporin disclosed in U.S. patent application Ser. No. 07/729,413, filed on Jul. 12, 1991, now U.S. Pat. No. 5,214,037, and EPO Application Publication No. 0 467 647 A2) was used.
(§3) In the tables, Compound A is a compound of the invention and Compound B is a control compound.

[2] = tested on: E. coli EC-14; assay: In vitro antibacterial activity (MIC, two-fold agar dilution) against E. coli EC-14; format: cell-based; conditions: Escherichia coli, EC14
Experimental: as §1, §2, §3

[3] = tested on: E. coli SR377; assay: In vitro antibacterial activity (MIC, two-fold agar dilution) against E. coli SR377; format: cell-based; conditions: Escherichia coli
Experimental: as §1, §2, §3

[4] = tested on: E. coli SR73; assay: In vitro antibacterial activity (MIC, two-fold agar dilution) against E. coli SR73; format: cell-based; conditions: Escherichia coli
Experimental: as §1, §2, §3

[5] = tested on: K. pneumoniae SRI; assay: In vitro antibacterial activity (MIC, two-fold agar dilution) against K. pneumoniae SRI; format: cell-based; conditions: Klebsiella pneumoniae
Experimental: as §1, §2, §3

[6] = tested on: E. cloacae SR233; assay: In vitro antibacterial activity (MIC, two-fold agar dilution) against E. cloacae SR233; format: cell-based; conditions: Enterobacter cloacae
Experimental: as §1, §2, §3

[7] = tested on: E. cloacae ATCC 13047; assay: In vitro antibacterial activity (MIC, two-fold agar dilution) against E. cloacae ATCC 13047; format: cell-based; conditions: Enterobacter cloacae, ATCC13047
Experimental: as §1, §2, §3

[8] = tested on: S. maecescense ATCC 13880; assay: In vitro antibacterial activity (MIC, two-fold agar dilution) against S. marcescense ATCC 13880; format: cell-based, Seratia marcescense
Experimental: as §1, §2, §3

[9] = Binding ability to plasma proteins; format: in vitro ADME; conditions: tentative value
[10] = In vivo pharmacokinetics, blood level in mice after administration; conditions: mouse, 10 mg/kg, 3 hr after administration
Experimental: The in vivo pharmacokinetics was also investigated in mice by measuring the blood level at 3 hr after administrating a test compound to a mouse (10 mg/kg).
as §2, §3

Nc1nc(/C(=N/O)C(=O)N[C@@H]2C(=O)N3C(C(=O)O)=C(SCSc4c[nH]nn4)CS[C@H]23)cs1 [Compound B, 7β-[(Z)-2-(2-amino-4-thiazolyl)-2-hydroxyiminoacetamido]-3-(1,2,3-triazol-4-yl)thiomethylthio-3-cephem-4-carboxylic acid]
MIC [1]: 0.3 µg/mL (≈ 0.583 µM)
MIC [2]: 0.1 µg/mL (≈ 0.194 µM)
MIC [3]: 0.8 µg/mL (≈ 1.55 µM)
MIC [4]: 1.6 µg/mL (≈ 3.11 µM)
MIC [5]: 0.1 µg/mL (≈ 0.194 µM)
MIC [6]: 0.8 µg/mL (≈ 1.55 µM)
MIC [7]: 100 µg/mL (≈ 194 µM)
MIC [8]: 3.2 µg/mL (≈ 6.22 µM)
fraction unbound [9]: 0.04
concentration at 3 h [10]: 18000 ng/mL

Nc1nc(/C(=N/O)C(=O)N[C@@H]2C(=O)N3C(C(=O)O)=C(SCSc4c[nH]nn4)CC[C@H]23)cs1 [Compound A, 7β-[(Z)-2-(2-Aminothiazol-4-yl)-2-hydroxyiminoacetamido]-3-(1,2,3-triazol-4-ylthiomethylthio)-1-carba-3-cephem-4-carboxylic acid]
MIC [1]: 0.05 µg/mL (≈ 0.101 µM)
MIC [2]: 0.025 µg/mL (≈ 0.0503 µM)
MIC [3]: 0.2 µg/mL (≈ 0.403 µM)
MIC [4]: 0.39 µg/mL (≈ 0.785 µM)
MIC [5]: 0.025 µg/mL (≈ 0.0503 µM)
MIC [6]: 0.1 µg/mL (≈ 0.201 µM)
MIC [7]: 12.5 µg/mL (≈ 25.2 µM)
MIC [8]: 0.2 µg/mL (≈ 0.403 µM)
fraction unbound [9]: 0.1
concentration at 3 h [10]: 82000 ng/mL

From patent US5362724A, “Thioalkylthio carbacephalosporin derivatives” (Shionogi & Co., Ltd., priority 1992, dated 1994)
